For experiment [1], the target named is 3',5'-cyclic-AMP phosphodiesterase 4D (Homo sapiens, UniProt Q08499). The class given is functional.
The target in experiment [2] is T1, Alpha-1A adrenergic receptor (Homo sapiens, UniProt P35348).
T1 sequence (P35348 whole entry): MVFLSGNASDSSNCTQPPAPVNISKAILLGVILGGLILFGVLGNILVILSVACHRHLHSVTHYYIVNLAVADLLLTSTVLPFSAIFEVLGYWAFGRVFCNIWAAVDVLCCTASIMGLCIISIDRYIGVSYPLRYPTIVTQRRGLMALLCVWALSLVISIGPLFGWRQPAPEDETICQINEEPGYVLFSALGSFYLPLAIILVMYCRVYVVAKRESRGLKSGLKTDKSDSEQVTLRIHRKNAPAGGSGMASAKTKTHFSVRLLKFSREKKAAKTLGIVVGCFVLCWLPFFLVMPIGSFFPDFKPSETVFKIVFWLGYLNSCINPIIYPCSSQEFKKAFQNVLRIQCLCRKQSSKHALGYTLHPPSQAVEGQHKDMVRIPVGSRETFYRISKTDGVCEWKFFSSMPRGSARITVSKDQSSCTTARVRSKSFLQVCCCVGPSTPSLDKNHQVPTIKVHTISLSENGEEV
The format is functional, cell-based.

For a further experiment, the target named is D(3) dopamine receptor (Homo sapiens, UniProt P35462).
Sequence of D(3) dopamine receptor (P35462 whole entry): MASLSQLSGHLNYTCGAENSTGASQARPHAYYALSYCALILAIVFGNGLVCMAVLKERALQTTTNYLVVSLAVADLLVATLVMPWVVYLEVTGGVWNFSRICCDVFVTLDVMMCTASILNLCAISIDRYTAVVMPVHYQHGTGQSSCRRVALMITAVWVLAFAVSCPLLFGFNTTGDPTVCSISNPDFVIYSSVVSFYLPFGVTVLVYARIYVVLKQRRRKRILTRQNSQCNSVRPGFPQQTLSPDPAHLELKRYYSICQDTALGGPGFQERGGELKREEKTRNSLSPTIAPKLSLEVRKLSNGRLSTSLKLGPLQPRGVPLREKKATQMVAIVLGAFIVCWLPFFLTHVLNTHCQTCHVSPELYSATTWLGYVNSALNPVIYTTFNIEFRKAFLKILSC
Another experiment has as its target Cannabinoid receptor 1 (Homo sapiens, UniProt P21554). The class given is functional, cell-based.
Experiment [3] has as its target T2, Amine oxidase [flavin-containing] A (Homo sapiens, UniProt P21397).
T2 sequence (P21397 whole entry): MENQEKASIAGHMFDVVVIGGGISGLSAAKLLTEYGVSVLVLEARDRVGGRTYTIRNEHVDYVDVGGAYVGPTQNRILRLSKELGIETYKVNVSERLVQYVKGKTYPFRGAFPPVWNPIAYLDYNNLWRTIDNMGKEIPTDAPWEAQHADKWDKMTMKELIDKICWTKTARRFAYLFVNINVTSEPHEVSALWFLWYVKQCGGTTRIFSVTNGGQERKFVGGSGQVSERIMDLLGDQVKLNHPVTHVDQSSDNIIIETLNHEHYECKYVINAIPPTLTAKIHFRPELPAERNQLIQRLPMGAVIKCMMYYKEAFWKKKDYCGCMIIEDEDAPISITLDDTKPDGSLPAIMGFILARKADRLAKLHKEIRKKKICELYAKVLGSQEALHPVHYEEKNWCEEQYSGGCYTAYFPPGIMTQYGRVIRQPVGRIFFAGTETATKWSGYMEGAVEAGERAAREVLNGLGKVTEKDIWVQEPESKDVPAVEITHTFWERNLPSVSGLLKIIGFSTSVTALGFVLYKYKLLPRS
The class given is functional.

In the next experiment the target is Motilin receptor (Homo sapiens, UniProt O43193).
Sequence of Motilin receptor (O43193 whole entry): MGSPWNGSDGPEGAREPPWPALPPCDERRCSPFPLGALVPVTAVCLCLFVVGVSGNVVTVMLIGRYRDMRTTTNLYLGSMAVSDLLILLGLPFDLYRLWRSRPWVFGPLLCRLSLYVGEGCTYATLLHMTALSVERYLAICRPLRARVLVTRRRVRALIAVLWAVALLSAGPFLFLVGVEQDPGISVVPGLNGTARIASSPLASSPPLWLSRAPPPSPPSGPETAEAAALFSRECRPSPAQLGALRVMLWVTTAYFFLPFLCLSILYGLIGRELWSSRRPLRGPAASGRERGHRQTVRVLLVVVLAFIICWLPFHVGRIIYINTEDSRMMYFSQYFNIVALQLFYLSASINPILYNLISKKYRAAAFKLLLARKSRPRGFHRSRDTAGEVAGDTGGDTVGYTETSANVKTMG
Experiment [4] deals with T3, Neuropeptide Y receptor type 1 (Homo sapiens, UniProt P25929).
T3 sequence (P25929 whole entry): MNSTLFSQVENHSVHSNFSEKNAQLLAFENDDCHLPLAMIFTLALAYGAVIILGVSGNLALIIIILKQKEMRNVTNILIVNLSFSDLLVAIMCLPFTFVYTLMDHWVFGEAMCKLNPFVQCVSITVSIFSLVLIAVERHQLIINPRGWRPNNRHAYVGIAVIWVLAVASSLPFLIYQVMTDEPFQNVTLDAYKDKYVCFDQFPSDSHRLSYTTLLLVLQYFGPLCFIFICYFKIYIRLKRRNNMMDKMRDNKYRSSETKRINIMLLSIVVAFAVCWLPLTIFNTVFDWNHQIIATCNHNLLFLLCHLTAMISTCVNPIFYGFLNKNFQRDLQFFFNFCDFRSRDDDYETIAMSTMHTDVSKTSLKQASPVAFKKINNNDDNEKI

Experiment [5] addresses T4, Gastrin/cholecystokinin type B receptor (Homo sapiens, UniProt P32239).
T4 sequence (P32239 whole entry): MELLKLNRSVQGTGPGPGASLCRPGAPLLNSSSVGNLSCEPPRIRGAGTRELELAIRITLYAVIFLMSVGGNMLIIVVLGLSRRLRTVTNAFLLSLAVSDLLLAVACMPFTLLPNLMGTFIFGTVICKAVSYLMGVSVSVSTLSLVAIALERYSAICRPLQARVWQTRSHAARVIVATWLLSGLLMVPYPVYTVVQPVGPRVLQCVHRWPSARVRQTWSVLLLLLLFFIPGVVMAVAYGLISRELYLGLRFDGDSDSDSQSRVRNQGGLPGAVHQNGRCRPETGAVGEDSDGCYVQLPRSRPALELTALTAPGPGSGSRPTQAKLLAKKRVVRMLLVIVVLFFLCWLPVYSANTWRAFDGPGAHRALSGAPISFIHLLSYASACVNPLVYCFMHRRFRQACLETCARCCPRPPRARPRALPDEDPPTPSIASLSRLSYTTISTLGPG

For experiment [6], the target named is Gamma-aminobutyric acid receptor subunit alpha-1 (Rattus norvegicus, UniProt P62813).
Sequence of Gamma-aminobutyric acid receptor subunit alpha-1 (P62813 whole entry): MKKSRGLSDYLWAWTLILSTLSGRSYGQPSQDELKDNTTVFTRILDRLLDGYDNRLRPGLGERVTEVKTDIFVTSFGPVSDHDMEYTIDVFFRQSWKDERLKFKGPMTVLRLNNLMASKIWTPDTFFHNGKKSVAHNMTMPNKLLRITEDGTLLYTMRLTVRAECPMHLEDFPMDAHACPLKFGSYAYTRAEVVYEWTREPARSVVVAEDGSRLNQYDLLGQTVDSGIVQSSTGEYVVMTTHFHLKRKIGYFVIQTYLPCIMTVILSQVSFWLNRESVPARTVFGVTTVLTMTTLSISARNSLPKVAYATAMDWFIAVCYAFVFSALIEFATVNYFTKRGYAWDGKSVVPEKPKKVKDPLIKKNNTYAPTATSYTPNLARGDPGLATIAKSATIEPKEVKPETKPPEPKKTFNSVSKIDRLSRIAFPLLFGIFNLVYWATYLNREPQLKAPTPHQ
The target in experiment [7] is Glutamate receptor ionotropic, NMDA 1 (Rattus norvegicus, UniProt P35439).

18 compounds from ChEMBL document CHEMBL5291721, “A preclinical secondary pharmacology resource illuminates target-adverse drug reaction associations of marketed drugs” (Nat Commun, 2023) can be followed below.

Bounds are passed on as bounds.

A word on the AC50: it is the concentration at which the activity in the assay is half-maximal. Read a high AC50 as weaker potency.
Further: assay procedure not described here.

Sequence of Cannabinoid receptor 1 (P21554 whole entry): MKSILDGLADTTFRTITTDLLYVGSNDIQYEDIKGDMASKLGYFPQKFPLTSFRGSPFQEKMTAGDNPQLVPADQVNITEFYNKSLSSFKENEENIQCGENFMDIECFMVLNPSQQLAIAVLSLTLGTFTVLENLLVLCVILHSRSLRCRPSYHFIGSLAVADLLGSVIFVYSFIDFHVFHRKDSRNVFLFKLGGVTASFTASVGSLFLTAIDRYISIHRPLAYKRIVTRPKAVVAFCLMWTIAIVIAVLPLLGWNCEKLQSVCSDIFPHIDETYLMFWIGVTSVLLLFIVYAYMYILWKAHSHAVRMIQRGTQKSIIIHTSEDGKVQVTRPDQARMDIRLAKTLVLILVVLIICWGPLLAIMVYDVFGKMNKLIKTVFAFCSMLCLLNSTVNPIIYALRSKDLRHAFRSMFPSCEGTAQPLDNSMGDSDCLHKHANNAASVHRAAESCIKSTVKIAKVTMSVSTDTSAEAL
Sequence of 3',5'-cyclic-AMP phosphodiesterase 4D (Q08499 whole entry): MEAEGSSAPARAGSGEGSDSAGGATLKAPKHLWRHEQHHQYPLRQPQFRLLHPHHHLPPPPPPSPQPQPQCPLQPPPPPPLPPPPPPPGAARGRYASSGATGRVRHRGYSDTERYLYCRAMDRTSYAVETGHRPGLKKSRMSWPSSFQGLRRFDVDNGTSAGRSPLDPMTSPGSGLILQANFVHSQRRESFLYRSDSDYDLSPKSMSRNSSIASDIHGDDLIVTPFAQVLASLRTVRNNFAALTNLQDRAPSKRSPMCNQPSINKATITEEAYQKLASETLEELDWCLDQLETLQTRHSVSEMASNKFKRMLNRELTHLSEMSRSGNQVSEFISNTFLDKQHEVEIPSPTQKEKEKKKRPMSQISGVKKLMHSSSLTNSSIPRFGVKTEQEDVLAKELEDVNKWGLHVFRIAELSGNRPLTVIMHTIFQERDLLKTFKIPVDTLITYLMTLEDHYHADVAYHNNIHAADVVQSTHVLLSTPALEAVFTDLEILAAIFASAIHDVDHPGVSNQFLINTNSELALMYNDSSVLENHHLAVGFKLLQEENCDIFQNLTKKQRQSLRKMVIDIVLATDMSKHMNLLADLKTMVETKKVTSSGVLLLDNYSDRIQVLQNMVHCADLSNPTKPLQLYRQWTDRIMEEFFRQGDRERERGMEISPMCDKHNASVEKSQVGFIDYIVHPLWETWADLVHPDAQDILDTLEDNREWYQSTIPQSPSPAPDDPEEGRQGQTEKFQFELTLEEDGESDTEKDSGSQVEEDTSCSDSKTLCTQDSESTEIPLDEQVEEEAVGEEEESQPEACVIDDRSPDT

Take `CC(=N)N1CC[C@H](SC2=C(C(=O)O)N3C(=O)[C@H]([C@@H](C)O)[C@H]3C2)C1`: the AC50 (in [1]; in [2]; at D(3) dopamine receptor; on Cannabinoid receptor 1; in experiment [3]; on Motilin receptor) was over 300 µM throughout.
Take `CC1(C)S[C@@H]2[C@H](NC(=O)[C@H](N)c3ccc(O)cc3)C(=O)N2[C@H]1C(=O)O` [AMOXICILLIN]: the half-maximal activity concentration (AC50) (in [4]; in experiment [5]; in [1]; in experiment [2]; in [6]; on D(3) dopamine receptor) was over 30 µM in each case. The AC50 (in experiment [3]; on Motilin receptor; in experiment [7]) was over 30 µM in each case.
With `O=C1CN2Cc3c(ccc(Cl)c3Cl)N=C2N1` [ANAGRELIDE], the concentration at half-maximal activity (AC50) in experiment [4] was over 30 µM; in [5], over 30 µM; in experiment [1], over 30 µM; in experiment [2], over 30 µM; in experiment [6], over 10 µM; on D(3) dopamine receptor, over 30 µM. Moreover, the half-maximal activity concentration (AC50) (in experiment [3]; on Motilin receptor; in [7]) was over 10 µM each time.
Take `C=C(C)[C@@H]1CCC(C)=C[C@H]1c1c(O)cc(CCCCC)cc1O` [CANNABIDIOL]: the AC50 in experiment [1] is over 30 µM; in [2], over 30 µM; on D(3) dopamine receptor, over 30 µM; in experiment [3], over 30 µM; on Motilin receptor, 20.5 µM.
`[H]/N=C(\N/C(=N/[H])NCCCCCCNC(=N)NC(=N)Nc1ccc(Cl)cc1)Nc1ccc(Cl)cc1` [CHLORHEXIDINE]: the AC50 in [4] was 2.2 µM; in experiment [1], over 10 µM; in experiment [2] it was over 30 µM; in [6], over 10 µM; on D(3) dopamine receptor it was 3.2 µM; in [3] it was over 10 µM. The AC50 on Motilin receptor was 0.784 µM; in experiment [7], over 10 µM.
On to `Clc1cccc(Cl)c1N=C1NCCN1` [CLONIDINE], for which the half-maximal activity concentration (AC50) is over 30 µM in experiment [4]; over 30 µM in experiment [5]; over 30 µM in [1]; over 10 µM in [6]; over 10 µM at D(3) dopamine receptor; over 30 µM at Cannabinoid receptor 1. For the same compound, the AC50 (in experiment [3]; on Motilin receptor; in experiment [7]) was over 10 µM throughout.
In the case of `CNCC[C@H](Oc1cccc2ccccc12)c1cccs1` [DULOXETINE], the half-maximal activity concentration (AC50) in [4] was over 30 µM; in experiment [5], over 30 µM; in [6], over 10 µM; at D(3) dopamine receptor, 4.6 µM; at Cannabinoid receptor 1, over 30 µM; in [3] it was over 10 µM. Also, the AC50 on Motilin receptor was 5.3 µM; in experiment [7] it was over 10 µM.
Turning to `CC1(C)O[C@@H]2C[C@H]3[C@@H]4C[C@H](F)C5=CC(=O)C=C[C@]5(C)[C@H]4[C@@H](O)C[C@]3(C)[C@]2(C(=O)CO)O1` [FLUNISOLIDE], the AC50 (in experiment [1]; in experiment [2]; at D(3) dopamine receptor; on Cannabinoid receptor 1; in [3]; on Motilin receptor) was over 30 µM each time.
Consider `CCC(=O)O[C@@H](O[P@](=O)(CCCCc1ccccc1)CC(=O)N1C[C@H](C2CCCCC2)C[C@H]1C(=O)O)C(C)C` [FOSINOPRIL], for which the AC50 (in experiment [1]; in experiment [2]; in experiment [6]; at D(3) dopamine receptor; at Cannabinoid receptor 1; in experiment [3]) was over 30 µM each time. The same compound yielded an AC50 in experiment [7] of over 30 µM.
For `C[C@H]1Oc2cc(cnc2N)-c2c(nn(C)c2C#N)CN(C)C(=O)c2ccc(F)cc21` [LORLATINIB], the AC50 was 16 µM in experiment [1]; over 30 µM in experiment [2]; over 30 µM at D(3) dopamine receptor; over 30 µM on Cannabinoid receptor 1; over 30 µM in [3]; over 30 µM at Motilin receptor.
For `CNCCC=C1c2ccccc2CCc2ccccc21` [NORTRIPTYLINE], the AC50 in experiment [4] was over 30 µM; in experiment [5] it was over 30 µM; in experiment [1] it was 7.5 µM; in [2] it was over 30 µM; in [6], over 30 µM; in [3], over 30 µM. In addition, the half-maximal activity concentration (AC50) on Motilin receptor was over 30 µM.
Regarding `CC(C)C[C@H](CN)CC(=O)O` [PREGABALIN], the half-maximal activity concentration (AC50) (in experiment [4]; in experiment [5]; in [1]; in experiment [6]; at D(3) dopamine receptor; at Cannabinoid receptor 1) was over 30 µM throughout. For the same compound, the AC50 (in [3]; at Motilin receptor; in experiment [7]) was over 30 µM throughout.
`CNC(=O)c1cc(Oc2ccc(NC(=O)Nc3ccc(Cl)c(C(F)(F)F)c3)c(F)c2)ccn1` [REGORAFENIB]: the AC50 in experiment [1] is over 30 µM; in experiment [2], over 30 µM; on D(3) dopamine receptor, over 30 µM; in experiment [3], 9.05 µM.
Turning to `CCOc1cc(CC(=O)N[C@@H](CC(C)C)c2ccccc2N2CCCCC2)ccc1C(=O)O` [REPAGLINIDE], the half-maximal activity concentration (AC50) in [1] was 9.6 µM; in experiment [2] it was 27 µM; on D(3) dopamine receptor, over 30 µM; at Cannabinoid receptor 1 it was over 30 µM; in experiment [3] it was over 30 µM; at Motilin receptor, over 30 µM.
In the case of `NC(=O)c1ncn([C@@H]2O[C@H](CO)[C@@H](O)[C@H]2O)n1` [RIBAVIRIN], the AC50 is over 10 µM in [4]; over 30 µM in [1]; over 30 µM in [2]; over 10 µM in experiment [6]; over 30 µM at D(3) dopamine receptor; over 30 µM at Cannabinoid receptor 1. The half-maximal activity concentration (AC50) (in [3]; at Motilin receptor; in [7]) was over 10 µM throughout.
In the case of `CCCN(CCc1cccs1)[C@H]1CCc2c(O)cccc2C1` [ROTIGOTINE], the AC50 in experiment [1] is over 30 µM; on Cannabinoid receptor 1, 20 µM; in experiment [3], over 30 µM; at Motilin receptor, over 30 µM.
In the case of `CC[C@H]1OC(=O)[C@H](C)[C@@H](O[C@H]2C[C@@](C)(OC)[C@@H](O)[C@H](C)O2)[C@H](C)[C@@H](O[C@@H]2O[C@H](C)C[C@H](N(C)C)[C@H]2O)[C@](C)(O)C[C@@H](C)/C(=N\OCOCCOC)[C@H](C)[C@@H](O)[C@]1(C)O` [ROXITHROMYCIN], the concentration at half-maximal activity (AC50) was over 30 µM in [1]; over 30 µM in experiment [2]; over 30 µM on D(3) dopamine receptor; over 30 µM at Cannabinoid receptor 1; over 30 µM in experiment [3]; 9 µM on Motilin receptor.
For `CN1CCN(CCCN2c3ccccc3Sc3ccc(S(=O)(=O)N(C)C)cc32)CC1` [THIOPROPERAZINE], the AC50 in experiment [1] is 13 µM; in experiment [2] it was over 30 µM; in [6], over 30 µM; on D(3) dopamine receptor it was 0.031 µM; on Cannabinoid receptor 1 it was over 30 µM; in experiment [3], over 30 µM. The AC50 in experiment [7] was over 10 µM.
